Legend:
[1] = biological target: human Nurr1 (Homo sapiens, UniProt P43354); assay: Hybrid Gal4-Nurr1 reporter gene assay in HEK293T cells
Protocol: Nurr1 modulation was determined in a Gal4 hybrid reporter gene assays in HEK293T cells (German Collection of Microorganisms and Cell Culture GmbH, DSMZ) using pFR-Luc (Stratagene, La Jolla, CA, USA; reporter), pRL-SV40 (Promega, Madison, WI, USA: internal control) and pFA-CMV-hNurr1-LBD, coding for the hinge region and ligand binding domain of the canonical isoform of human Nurr1. Cells were cultured in Dulbecco's modified Eagle's medium (DMEM), high glucose supplemented with 10% fetal calf serum (FCS), sodium pyruvate (1 mM), penicillin (100 U/mL), and streptomycin (100 μg/mL) at 37° C., and 5% CO2 and seeded in 96-well plates (3×10+ cells/well). […] Firefly luminescence was divided by Renilla luminescence and multiplied by 1000 resulting in relative light units (RLU) to normalize for transfection efficiency and cell growth. Fold activation was obtained by dividing the mean RLU of test compound by the mean RLU of the untreated control. All samples were tested in at least three biologically independent experiments in duplicates. For dose-response curve fitting and calculation of EC50 values, the equation “[Agonist] versus response (three parameters)” was used in GraphPad Prism (version 7.00, GraphPad Software, La Jolla, CA, USA).
Similarly as described in Part A, the Nurr1 modulation was determined in a Gal4 hybrid reporter gene assay at a fixed concentration of 3 μM.

[2] = system: BDNF; assay: Induction of BDNF in LPS-stimulated human PBMCs (ELISA); assay type: cell-based; settings: 3 μM, supernatant 14 h
[3] = biological target: T1, hDHODH (Homo sapiens, UniProt Q02127); assay: in vitro inhibition of hDHODH; assay type: biochemical
T1 construct: measured using an N-terminally truncated recombinant hDHODH enzyme
Protocol: The in vitro inhibition of hDHODH was measured using an N-terminally truncated recombinant hDHODH enzyme. Briefly, the hDHODH concentration was adjusted in a way that an average slope of approximately 0.2 AU/min served as the positive control (e.g., without inhibitor). The assay mixture contained 60 μM 2,6-dichloroindophenol, 50 μM decylubiquinone and 100 μM dihydroorotate. The hDHODH enzyme with or without at least six different concentrations of the compounds was added and measurements were performed in 50 mM TrisHCl, 150 mM KCl and 0.1% Triton X-100 at pH 8.0 and at 30° C. The reaction was started by adding dihydroorotate and measuring the absorption at 600 nm for 2 min. For the determination of the IC50 values, each data point was recorded in triplicate.

human Nurr1, sequence (P43354 360-595 limits assumed): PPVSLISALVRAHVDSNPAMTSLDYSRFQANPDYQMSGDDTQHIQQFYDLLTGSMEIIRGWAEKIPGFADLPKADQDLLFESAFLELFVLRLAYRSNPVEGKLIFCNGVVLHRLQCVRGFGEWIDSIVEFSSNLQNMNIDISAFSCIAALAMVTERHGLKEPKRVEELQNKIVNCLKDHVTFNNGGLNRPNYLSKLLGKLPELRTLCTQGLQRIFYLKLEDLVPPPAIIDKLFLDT
T1 sequence (Q02127 29-395): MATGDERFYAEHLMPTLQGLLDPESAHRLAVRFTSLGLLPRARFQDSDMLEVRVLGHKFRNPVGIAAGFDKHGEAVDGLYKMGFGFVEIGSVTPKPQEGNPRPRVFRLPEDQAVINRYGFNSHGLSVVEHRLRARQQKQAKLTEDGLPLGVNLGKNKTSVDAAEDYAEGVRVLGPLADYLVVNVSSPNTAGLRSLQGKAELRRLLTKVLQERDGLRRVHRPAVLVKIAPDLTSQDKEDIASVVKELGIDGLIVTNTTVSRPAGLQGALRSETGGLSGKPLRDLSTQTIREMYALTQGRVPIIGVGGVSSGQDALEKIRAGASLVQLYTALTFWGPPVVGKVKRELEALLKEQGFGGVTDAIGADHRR

| SMILES | EC50 [1] | Nurr1 agonism max. fold activation (range) [1] | IC50 [3] | further results |
| --- | --- | --- | --- | --- |
| [2H]c1cc([2H])c(-c2ccc(NC(=O)C3=C(C(=O)O)CCC3)c(F)c2)c([2H])c1O [2/4] | 100 to 1000 nM | + (+: ≥1.3-fold to <2-fold) | – | – |
| [2H]C([2H])([2H])Oc1ccccc1-c1c(F)c(F)c(NC(=O)C2=C(C(=O)O)CCC2)c(F)c1F [2/27] | – | – | – | Fold Activation @ 3 μM [1]: +++ (+++: ≥3-fold) |
| C/C(O)=C(\C#N)C(=O)Nc1ccc(C(F)(F)F)cc1 [teriflunomide, reference compound] | – | – | – | BDNF production [2]: no effect |
| C#CCOc1cccc(-c2c(F)c(F)c(NC(=O)c3ccsc3C(=O)O)c(F)c2F)c1 [6/17] | – | – | – | Fold Activation @ 3 μM [1]: +++ (+++: ≥3-fold) |
| [2H]C(F)(F)Oc1cccc(-c2ccc(NC(=O)C3=C(C(=O)O)CCC3)c(F)c2)c1 [2/2] | 100 to 1000 nM | +++ (+++: ≥3-fold) | 1000 to 10000 nM | – |
| [2H]C([2H])([2H])Oc1cccc(-c2c(F)c(F)c(NC(=O)c3ccsc3C(=O)NCCO)c(F)c2F)c1 [6/40] | 1000 to 10000 nM | + (+: ≥1.3-fold to <2-fold) | > 10000 nM | – |
| [2H]C([2H])([2H])Oc1cccc(-c2ccc(NC(=O)c3cscc3C(=O)NCC)cc2)c1 [6/56] | 1000 to 10000 nM | +++ (+++: ≥3-fold) | > 10000 nM | – |
| [2H]C([2H])([2H])Oc1ccccc1-c1c(F)c(F)c(NC(=O)c2cscc2C(=O)O)c(F)c1F [6/5] | < 100 nM | + (+: ≥1.3-fold to <2-fold) | < 10 nM | – |
| [2H]C([2H])([2H])Oc1cccc(-c2cc(F)c(NC(=O)C3=C(C(=O)O)CCC3)c(OC([2H])([2H])[2H])c2)c1 [2/31] | 100 to 1000 nM | + (+: ≥1.3-fold to <2-fold) | – | – |
| [2H]C([2H])([2H])Oc1cccc(-c2c(F)c(F)c(NC(=O)c3cscc3C(=O)O)c(F)c2F)c1 [6/3] | – | – | – | Fold Activation @ 3 μM [1]: ++ (++: ≥2-fold to <3-fold) |
| [2H]C([2H])([2H])Oc1cccc(-c2cc(F)c(NC(=O)c3ccsc3C(=O)O)c(F)c2)c1 [2/26] | – | – | – | Fold Activation @ 3 μM [1]: + (+: ≥1.3-fold to <2-fold) |
| [2H]C([2H])([2H])Oc1cccc(-c2c(F)c(F)c(NC(=O)C3=C(C(=O)N(C)C)CC(F)(F)C3)c(F)c2F)c1 [6/27] | 1000 to 10000 nM | + (+: ≥1.3-fold to <2-fold) | 1000 to 10000 nM | – |
| [2H]c1c([2H])c([2H])c(-c2c(F)c(F)c(NC(=O)C3=C(C(N)=O)CC(F)(F)C3)c(F)c2F)c([2H])c1[2H] [6/46] | 100 to 1000 nM | – | 1000 to 10000 nM | – |
| O=C(O)C1=C(C(=O)Nc2c(F)cc(-c3cccc4c3OCO4)cc2F)CCC1 [reference compound] | > 10000 nM | – | – | – |
| [N-]=[N+]=NCCOc1cccc(-c2ccc(NC(=O)C3=C(C(=O)O)CCC3)c(F)c2)c1 [4/1] | < 100 nM | +++ (+++: ≥3-fold) | – | – |
| [2H]C([2H])([2H])Oc1cccc(-c2ccc(NC(=O)c3cscc3C(=O)O)cc2)c1 [6/50] | < 100 nM | ++ (++: ≥2-fold to <3-fold) | 100 to 1000 nM | – |
| [2H]C([2H])([2H])Oc1cccc(-c2c(F)c(F)c(NC(=O)C3=C(C(=O)O)CCC3)c(F)c2F)c1 [2/10] | < 100 nM | + (+: ≥1.3-fold to <2-fold) | – | – |
| [2H]C([2H])([2H])Oc1cccc(-c2cc(F)c(NC(=O)C3=C(C(=O)NOCC)CCC3)c(F)c2)c1 [2/18] | 1000 to 10000 nM | ++ (++: ≥2-fold to <3-fold) | – | – |
| [2H]C([2H])([2H])Oc1cccc(-c2c(F)c(F)c(NC(=O)c3ccsc3C(=O)O)c(F)c2F)c1 [6/2] | – | – | – | Fold Activation @ 3 μM [1]: ++ (++: ≥2-fold to <3-fold) |
| [2H]C([2H])([2H])Oc1cccc(-c2cc(F)c(NC(=O)C3=C(/C(N)=N/O)CCC3)c(F)c2)c1 [2/20] | 100 to 1000 nM | ++ (++: ≥2-fold to <3-fold) | – | – |
| C#CCOc1cccc(-c2ccc(NC(=O)c3cscc3C(=O)O)c(F)c2)c1 [6/52] | < 100 nM | ++ (++: ≥2-fold to <3-fold) | 100 to 1000 nM | – |
| C#CCOc1cccc(-c2ccc(NC(=O)c3cscc3C(=O)O)cc2)c1 [6/51] | 100 to 1000 nM | +++ (+++: ≥3-fold) | 1000 to 10000 nM | – |
| [2H]C([2H])([2H])Oc1cccc(-c2c(F)cc(NC(=O)c3ccsc3C(=O)O)cc2F)c1 [6/8] | – | – | – | Fold Activation @ 3 μM [1]: +++ (+++: ≥3-fold) |
| [2H]C([2H])([2H])Oc1ccccc1-c1c(F)c(F)c(NC(=O)C2=C(C(=O)O)CSC2)c(F)c1F [6/7] | – | – | – | Fold Activation @ 3 μM [1]: ++ (++: ≥2-fold to <3-fold) |

| SMILES | EC50 [1] | Nurr1 agonism max. fold activation (range) [1] | IC50 [3] | further results |
| --- | --- | --- | --- | --- |
| [2H]C([2H])([2H])Oc1cccc(-c2cc(F)c(NC(=O)C3=C(C(=O)NS(=O)(=O)C(F)F)CCC3)c(F)c2)c1 [2/22] | 1000 to 10000 nM | ++ (++: ≥2-fold to <3-fold) | – | – |
| [2H]c1c([2H])c([2H])c(-c2c(F)c(F)c(NC(=O)c3ccsc3C(N)=O)c(F)c2F)c([2H])c1[2H] [6/45] | 100 to 1000 nM | – | 1000 to 10000 nM | – |
| COc1cccc(-c2ccc(NC(=O)C3=C(C(=O)NO)CCC3)c(F)c2)c1 [6/10] | – | – | – | Fold Activation @ 3 μM [1]: ++ (++: ≥2-fold to <3-fold) |
| C#CCOc1cccc(-c2ccc(NC(=O)c3cscc3C(=O)NCC)c(F)c2)c1 [6/58] | 1000 to 10000 nM | + (+: ≥1.3-fold to <2-fold) | > 10000 nM | – |
| [2H]C([2H])([2H])Oc1cccc(-c2cc(F)c(NC(=O)C3=C(C(=O)NOCCF)CCC3)c(F)c2)c1 [2/23] | 100 to 1000 nM | + (+: ≥1.3-fold to <2-fold) | – | – |
| C#CCOc1cccc(-c2ccc(NC(=O)c3cscc3C(=O)NCC)cc2)c1 [6/57] | 1000 to 10000 nM | + (+: ≥1.3-fold to <2-fold) | > 10000 nM | – |
| [2H]C([2H])([2H])Oc1cccc(-c2c(F)c(F)c(NC(=O)c3ccsc3C(=O)NCC)c(F)c2F)c1 [6/15] | 100 to 1000 nM | + (+: ≥1.3-fold to <2-fold) | > 10000 nM | – |
| [2H]C([2H])([2H])Oc1cccc(-c2ccc(NC(=O)C3=C(C(=O)O)CCC3)c3cnccc23)c1 [2/13] | 1000 to 10000 nM | +++ (+++: ≥3-fold) | – | – |
| [2H]C([2H])([2H])Oc1cccc(-c2c(F)c(F)c(NC(=O)c3c(C(=O)O)sc(C)c3C)c(F)c2F)c1 [6/13] | < 100 nM | ++ (++: ≥2-fold to <3-fold) | < 100 nM | – |
| [2H]C([2H])([2H])Oc1cccc(-c2cc(F)c(NC(=O)C3=C(C(=O)NOCCO)CCC3)c(F)c2)c1 [2/24] | 1000 to 10000 nM | + (+: ≥1.3-fold to <2-fold) | – | – |
| [2H]c1cc([2H])c(-c2c(F)c(F)c(NC(=O)c3ccsc3C(=O)O)c(F)c2F)c([2H])c1OC(F)(F)F [2/25] | – | – | – | Fold Activation @ 0.3 μM [1]: +++ (+++: ≥3-fold); Fold Activation @ 3 μM [1]: ++ (++: ≥2-fold to <3-fold) |
| [2H]C([2H])([2H])Oc1cccc(-c2cc(F)c(NC(=O)C3=C(C(=O)NOC)CCC3)c(C#N)c2)c1 [2/29] | – | – | – | Fold Activation @ 3 μM [1]: + (+: ≥1.3-fold to <2-fold) |
| [2H]C([2H])([2H])Oc1cccc(-c2c(F)c(F)c(NC(=O)c3ccsc3C(=O)NCC(F)(F)F)c(F)c2F)c1 [6/44] | – | – | – | Fold Activation @ 3 μM [1]: + (+: ≥1.3-fold to <2-fold) |
| [2H]C([2H])([2H])Oc1cccc(C23CCC(NC(=O)C4=C(C(=O)O)CCC4)(CC2)CC3)c1 [reference compound] | > 10000 nM | – | > 50000 nM | – |
| [2H]C([2H])([2H])Oc1cccc(-c2cc(F)c(NC(=O)C3=C(C(=O)NS(=O)(=O)C4(C)CC4)CCC3)c(F)c2)c1 [2/21] | 1000 to 10000 nM | ++ (++: ≥2-fold to <3-fold) | – | – |
| C#CCOc1cccc(-c2ccc(NC(=O)c3cscc3C(N)=O)cc2)c1 [6/54] | 1000 to 10000 nM | + (+: ≥1.3-fold to <2-fold) | > 10000 nM | – |
| [2H]C([2H])([2H])Oc1cccc(-c2ccc(NC(=O)c3cscc3C(N)=O)cc2)c1 [6/53] | 100 to 1000 nM | + (+: ≥1.3-fold to <2-fold) | > 10000 nM | – |
| [2H]C([2H])([2H])Oc1cccc(-c2c(F)c(F)c(NC(=O)c3ccsc3C(N)=O)c(F)c2F)c1 [6/14] | 100 to 1000 nM | + (+: ≥1.3-fold to <2-fold) | 1000 to 10000 nM | – |
| [2H]C([2H])([2H])Oc1cccc(-c2c(F)c(F)c(NC(=O)c3ccsc3C(=O)NCC#N)c(F)c2F)c1 [6/39] | 1000 to 10000 nM | ++ (++: ≥2-fold to <3-fold) | 100 to 1000 nM | – |
| [2H]C([2H])([2H])Oc1cccc(-c2ccc(N(C)C(=O)C3=C(C(=O)O)CCC3)c(F)c2)c1 [reference compound] | > 10000 nM | – | – | – |
| [2H]C([2H])([2H])Oc1cccc(-c2c(F)c(F)c(NC(=O)c3ccccc3C(=O)O)c(F)c2F)c1 [6/20] | < 100 nM | – | < 100 nM | – |
| [2H]C([2H])([2H])Oc1cccc(-c2c(F)c(F)c(NC(=O)c3ccsc3C(=O)NCC(F)F)c(F)c2F)c1 [6/41] | – | – | – | Fold Activation @ 0.3 μM [1]: + (+: ≥1.3-fold to <2-fold) |
| C#CCOc1cccc(-c2c(F)c(F)c(NC(=O)c3ccsc3C(=O)NC)c(F)c2F)c1 [6/18] | – | – | – | Fold Activation @ 3 μM [1]: + (+: ≥1.3-fold to <2-fold) |
| [2H]C([2H])([2H])Oc1cccc(-c2c(F)c(F)c(NC(=O)C3=C(C(=O)O)CC(F)(F)C3)c(F)c2F)c1 [6/1] | – | – | – | Fold Activation @ 3 μM [1]: ++ (++: ≥2-fold to <3-fold) |

— patent US20260130879A1 (IMMUNIC AG, priority 2023, published 2026)
